Laboratory results published in ChEMBL document CHEMBL1201862, “PubChem BioAssay data set” (2004).
Values joined by “and” are separate entries in the source; they are usually repeats but may differ in a detail not shown here. Equal values may be shown once.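 Each compound was tested at five concentrations against cells in 96-well plates for 48 hours. Here, GI50 denotes the concentration required for 50% inhibition of growth.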 Active and inactive are the calls of the source. Cut-off read from the data, not from the text of the source: active = GI50 up to about 1.1 µM and inactive = higher.

How the values were obtained:
Test in all cases: NCI tumour cell line growth inhibition, 48 h
[1] = test system: UACC-62
[2] = test system: CCRF-CEM
[3] = test system: 786-0
[4] = test system: NCI-H226
[5] = test system: MDA-MB-231
[6] = test system: NCI-H460
[7] = test system: MCF7
[8] = test system: PC-3
[9] = test system: RPMI-8226
[10] = test system: OVCAR-4
[11] = test system: Hs-578T
[12] = test system: COLO 205
[13] = test system: SNB-19
[14] = test system: HOP-92
[15] = test system: OVCAR-8
[16] = test system: U-251
[17] = test system: MDA-MB-435
[18] = test system: Malme-3M
[19] = test system: SNB-75

SMILES | GI50 [1] | GI50 [2] | GI50 [3] | GI50 [4] | GI50 [5] | GI50 [6] | GI50 [7] | GI50 [8] | GI50 [9] | GI50 [10] | GI50 [11] | GI50 [12] | GI50 [13] | GI50 [14] | GI50 [15] | GI50 [16] | GI50 [17] | GI50 [18] | GI50 [19]
N#C/C(C(=S)Nc1ccccc1)=C(/N)N1CCCC1 | > 100 µM (inactive) | > 100 µM (inactive) | > 100 µM (inactive) | > 100 µM (inactive) | > 100 µM (inactive) | > 100 µM (inactive) | > 100 µM (inactive) | > 100 µM (inactive) | > 100 µM (inactive) | > 100 µM (inactive) | > 100 µM (inactive) | > 100 µM (inactive) | > 100 µM (inactive) | 62.5 µM (inactive) | > 100 µM (inactive) | > 100 µM (inactive) | > 100 µM (inactive) | > 100 µM (inactive) | 
COC(=O)/C(=N/NC(N)=O)C(C(=O)C(=O)Nc1ccc(C)cc1)c1nc2ccc(C(=O)c3ccccc3)cc2nc1O (stereo unspecified) | 51.4 µM (inactive) | 49 µM (inactive) | > 100 µM (inactive) | 40.9 µM (inactive) | > 100 µM (inactive) | > 100 µM (inactive) | 91.4 µM (inactive) | > 100 µM (inactive) |  | > 100 µM (inactive) | 67 µM (inactive) | > 100 µM (inactive) | > 100 µM (inactive) | 30.3 µM (inactive) | 75.2 µM (inactive) | > 100 µM (inactive) | 37 µM (inactive) | > 100 µM (inactive) | 39.7 µM (inactive)
CCCNC(=S)N/C=C1\C(=O)Nc2ccccc2C1=O | > 100 µM (inactive) | > 100 µM (inactive) | > 100 µM (inactive) | > 100 µM (inactive) | > 100 µM (inactive) | > 100 µM (inactive) | > 100 µM (inactive) | > 100 µM (inactive) | > 100 µM (inactive) | > 100 µM (inactive) | > 100 µM (inactive) | > 100 µM (inactive) | > 100 µM (inactive) | > 100 µM (inactive) | > 100 µM (inactive) | > 100 µM (inactive) | > 100 µM (inactive) |  | 83.2 µM (inactive)
CCOC(=O)C(C(=O)OCC)=C1SC(=N\c2ccccc2)/C(=N/c2ccccc2)N1c1ccccc1 | 53.6 µM (inactive) | 18.4 µM (inactive) | > 100 µM (inactive) | > 100 µM (inactive) | > 100 µM (inactive) | > 100 µM (inactive) | 75.3 µM (inactive) | 58.7 µM (inactive) | > 100 µM (inactive) |  | 90.8 µM (inactive) | > 100 µM (inactive) | > 100 µM (inactive) | 54 µM (inactive) | > 100 µM (inactive) | > 100 µM (inactive) | > 100 µM (inactive) | > 100 µM (inactive) | > 100 µM (inactive)
O=c1[nH]nc(Cc2ccc([N+](=O)[O-])cc2)n1CCO | > 100 µM (inactive) |  | > 100 µM (inactive) | > 100 µM (inactive) | > 100 µM (inactive) | > 100 µM (inactive) | > 100 µM (inactive) | > 100 µM (inactive) | > 100 µM (inactive) | > 100 µM (inactive) | > 100 µM (inactive) | > 100 µM (inactive) | > 100 µM (inactive) | > 100 µM (inactive) | > 100 µM (inactive) | > 100 µM (inactive) | > 100 µM (inactive) | > 100 µM (inactive) | 
CC(=N\c1ccncc1)/C(C)=N/c1ccncc1 |  | 25.8 µM (inactive) | 34.7 µM (inactive) | 34 µM (inactive) | 21.8 µM (inactive) | 96.6 µM (inactive) | 16.7 µM (inactive) | 19.3 µM (inactive) | 21.1 µM (inactive) | 11.4 µM (inactive) | 28.8 µM (inactive) | 17 µM (inactive) | 27.5 µM (inactive) | 22.3 µM (inactive) | 35.2 µM (inactive) | 24.5 µM (inactive) | 29.2 µM (inactive) | 17.6 µM (inactive) | > 100 µM (inactive)
CCOP(=O)(OCC)/C(=C/NC(=S)c1ccncc1)C(=O)OC | > 100 µM (inactive) | 20.6 µM (inactive) | > 100 µM (inactive) | > 100 µM (inactive) | > 100 µM (inactive) | > 100 µM (inactive) | > 100 µM (inactive) | > 100 µM (inactive) | > 100 µM (inactive) | > 100 µM (inactive) | > 100 µM (inactive) | > 100 µM (inactive) | > 100 µM (inactive) | > 100 µM (inactive) | > 100 µM (inactive) | > 100 µM (inactive) | > 100 µM (inactive) |  | 
CCOC(=O)/C=C/CC(C)(C)CCOC(C)=O | > 10 µM (inactive) | > 10 µM (inactive) | > 10 µM (inactive) | > 10 µM (inactive) | > 10 µM (inactive) | > 10 µM (inactive) | > 10 µM (inactive) | > 10 µM (inactive) | > 10 µM (inactive) | > 10 µM (inactive) | > 10 µM (inactive) | > 10 µM (inactive) | > 10 µM (inactive) | > 10 µM (inactive) | > 10 µM (inactive) | > 10 µM (inactive) | > 10 µM (inactive) |  | > 10 µM (inactive)
O=C1N/C(=N/N=C\C(O)C(O)C(O)CO)N/C1=C/c1ccc(Cl)cc1 (stereo unspecified) |  | 25.8 µM (inactive) and 21.5 µM (inactive) | 53.1 µM (inactive) | 21 µM (inactive) and 22.2 µM (inactive) | 58.5 µM (inactive) and 44.6 µM (inactive) | 33.9 µM (inactive) | 29.2 µM (inactive) | 42.8 µM (inactive) and 37.5 µM (inactive) | 33.2 µM (inactive) and 34.4 µM (inactive) | 20.7 µM (inactive) | 40.1 µM (inactive) and 29 µM (inactive) | 42.6 µM (inactive) and 30.1 µM (inactive) | 27 µM (inactive) and 29 µM (inactive) | 17 µM (inactive) and 32.1 µM (inactive) | 44.1 µM (inactive) and 27.7 µM (inactive) | 33 µM (inactive) and 34.1 µM (inactive) | 59.4 µM (inactive) and 43.8 µM (inactive) | 20.9 µM (inactive) and 17 µM (inactive) | 41.5 µM (inactive) and 32.9 µM (inactive)
COc1cc2c(cc1O)-c1c(OC)c(O)cc3c1C(C2)N(C)CC3 (stereo unspecified) | > 100 µM (inactive) | > 100 µM (inactive) | > 100 µM (inactive) | > 100 µM (inactive) | > 100 µM (inactive) | > 100 µM (inactive) | > 100 µM (inactive) | > 100 µM (inactive) | > 100 µM (inactive) | > 100 µM (inactive) | > 100 µM (inactive) | > 100 µM (inactive) | > 100 µM (inactive) | > 100 µM (inactive) | > 100 µM (inactive) | > 100 µM (inactive) | > 100 µM (inactive) |  | > 100 µM (inactive)
COc1ccc(O)c(/C=N\Nc2ccccc2)c1 | 2.6 µM (inactive) |  | 32.3 µM (inactive) | 20.6 µM (inactive) | 7.03 µM (inactive) | 4.79 µM (inactive) | 14.8 µM (inactive) | 45.2 µM (inactive) | 0.021 µM (active) | 8.45 µM (inactive) | 30.1 µM (inactive) | 10.6 µM (inactive) | 30.8 µM (inactive) | 14 µM (inactive) | 22.1 µM (inactive) | 26.2 µM (inactive) | 3.67 µM (inactive) |  | 49.9 µM (inactive)
COC(=O)C1(C#N)C(C)(C)N=C(c2ccccc2)C12CCCCC2 (stereo unspecified) | 76.9 µM (inactive) | > 100 µM (inactive) | > 100 µM (inactive) |  | > 100 µM (inactive) | > 100 µM (inactive) | > 100 µM (inactive) | 58.7 µM (inactive) | 63.4 µM (inactive) | > 100 µM (inactive) | > 100 µM (inactive) | > 100 µM (inactive) | > 100 µM (inactive) | 53.2 µM (inactive) | > 100 µM (inactive) | > 100 µM (inactive) | > 100 µM (inactive) | > 100 µM (inactive) | 
CC(=O)Oc1ccc(/C=C/C(=O)O[C@H]2CCCC[C@@H]2OC(=O)/C=C/c2ccc(OC(C)=O)c(OC(C)=O)c2)cc1OC(C)=O | 4.84 µM (inactive) | 2.75 µM (inactive) | 4.57 µM (inactive) |  | 17 µM (inactive) | 3.85 µM (inactive) | 13.8 µM (inactive) | 8.28 µM (inactive) | 4.07 µM (inactive) | 7.08 µM (inactive) | 6.21 µM (inactive) | 16.7 µM (inactive) | 4.71 µM (inactive) | 4.62 µM (inactive) | 8.61 µM (inactive) | 9.25 µM (inactive) | 10.4 µM (inactive) | 15.6 µM (inactive) | 9.46 µM (inactive)
O=C(O)c1c(Br)c(Br)c(Br)c(Br)c1C1c2ccc(O)cc2Oc2cc(O)ccc21 | > 100 µM (inactive) |  | > 100 µM (inactive) | > 100 µM (inactive) | > 100 µM (inactive) | > 100 µM (inactive) | > 100 µM (inactive) | > 100 µM (inactive) | > 100 µM (inactive) | > 100 µM (inactive) | > 100 µM (inactive) | > 100 µM (inactive) | > 100 µM (inactive) | > 100 µM (inactive) | > 100 µM (inactive) | > 100 µM (inactive) | > 100 µM (inactive) | > 100 µM (inactive) | > 100 µM (inactive)
COC(=O)NCCc1n[nH]c2c1C(=O)C=C(Nc1ccccc1)C2=O | 17.3 µM (inactive) | 13.7 µM (inactive) | 47.3 µM (inactive) |  | 25.9 µM (inactive) | 32.4 µM (inactive) | 15.5 µM (inactive) | 30.3 µM (inactive) | 19.1 µM (inactive) | 15.4 µM (inactive) | 36.7 µM (inactive) | 16.8 µM (inactive) | 28 µM (inactive) | 27.7 µM (inactive) | 17.9 µM (inactive) | 15.2 µM (inactive) | 17 µM (inactive) | 12.7 µM (inactive) | 57.3 µM (inactive)
